These results are taken from BindingDB's records for doi:10.7270/Q28K77GS (University of Pittsburgh, 2007).

Some results are limits rather than exact numbers.

For this assay, the target named is T1, Dual specificity protein phosphatase 1 (Homo sapiens, UniProt P28562).
T1 sequence (P28562 whole entry): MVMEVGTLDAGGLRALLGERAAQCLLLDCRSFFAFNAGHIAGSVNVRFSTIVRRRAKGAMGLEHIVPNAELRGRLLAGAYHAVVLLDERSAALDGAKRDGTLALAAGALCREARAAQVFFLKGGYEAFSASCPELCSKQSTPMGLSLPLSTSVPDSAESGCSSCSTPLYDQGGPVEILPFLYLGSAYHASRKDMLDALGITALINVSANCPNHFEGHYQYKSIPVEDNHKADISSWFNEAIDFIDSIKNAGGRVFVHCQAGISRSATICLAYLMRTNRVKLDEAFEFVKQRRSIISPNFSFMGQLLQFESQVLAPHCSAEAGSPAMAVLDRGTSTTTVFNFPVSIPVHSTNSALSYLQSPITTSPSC
As to the kind of experiment: MKP-1 phosphatase inhibitors, dose response, biochemical, probe assessment (AID 674).

As usually defined, the IC50 is the concentration that inhibits the measured activity by half. The low end stands for higher potency, the high end for lower potency. Consider `O=C(Nc1ccc2nc(-c3ccco3)c(-c3ccco3)nc2c1)N1CCCCCC1`, for which the IC50 was over 50 µM.

Regarding `Cc1ccc2c(c1C)NC(C(=O)O)C1CC=CC21` (stereo not drawn), inhibition was half-maximal at 42.5 µM (IC50).

As to `O=C(O)C1Nc2c(O)cccc2C2C=CCC12` (stereo not drawn), the IC50 was over 50 µM.

`Cn1ncnc2c(=O)n(C)c(=O)nc1-2`: it took 0.423 µM to reach half-maximal inhibition (IC50).

For `[O-]/[N+](=C\c1ccncc1)c1ccccc1`, the 50% inhibitory concentration (IC50) was over 50 µM.

In turn, `COc1cccc2c(C)c(C(=O)O)[nH]c12` registered a half-maximal inhibitory concentration (IC50) of over 50 µM.

Regarding `O=C1C=Cc2ccccc2C1=O` [1,2-dihydronaphthalene-1,2-dione], the concentration for half-maximal inhibition (IC50) is over 50 µM.

`CCn1nc(-c2ccccc2)nc2c(=O)n(C)c(=O)nc1-2` [1-Ethyl-6-methyl-3-phenyl-1H-pyrimido[5,4-e][1,2,4]triazine-5,7-dione] yielded an IC50 of 0.485 µM.

As for `[O-]/[N+](=C\c1ccc(OC(F)F)cc1)c1ccccc1` [1-[4-(difluoromethoxy)phenyl]-N-phenylmethanimine oxide], the concentration for half-maximal inhibition (IC50) is over 50 µM.

As for `CCn1nc(-c2cccs2)nc2c(=O)n(C)c(=O)nc1-2` [1-ethyl-6-methyl-3-thiophen-2-yl-pyrimido[5,4-e][1,2,4]triazine-5,7-dione], the midpoint of inhibition, the IC50, lay at 0.333 µM.

`O=C1Cc2ccccc2C(=O)N1CCc1ccccc1` [2-(2-phenylethyl)-4H-isoquinoline-1,3-dione] returned an IC50 of over 50 µM.

In turn, `N#Cc1c(N)sc(=S)c2c1CCN(Cc1ccccc1)C2` [3-Amino-7-benzyl-1-thioxo-5,6,7,8-tetrahydro-1H-thiopyrano[3,4-c]pyridine-4-carbonitrile] returned an IC50 of 2.38 µM.

`Cc1ccccc1Nc1cc2ccccc2c(O)n1` [3-[(2-methylphenyl)amino]-2H-isoquinolin-1-one]: the IC50 is 8.75 µM.

Turning to `COc1ccc(Br)cc1C=c1sc2nc(-c3ccco3)nn2c1=O` [5-[(5-bromanyl-2-methoxy-phenyl)methylidene]-2-(furan-2-yl)-[1,3]thiazolo[3,2-b][1,2,4]triazol-6-one], the 50% inhibitory concentration (IC50) was determined as 7.02 µM.

`CC(=O)Nc1cc(OC(C)=O)c2nonc2c1OC(C)=O` [Acetic acid 7-acetoxy-5-acetylamino-benzo[1,2,5]oxadiazol-4-yl ester] registered an IC50 of over 50 µM.

`CCOC(=O)C(C(=O)OCC)c1cc(Br)c2noc3c2c1C(=O)c1ccccc1-3` [MLS000038842]: the half-inhibitory concentration (IC50) was over 50 µM.

`Oc1nc(Nc2ccccc2)cc2ccccc12` [MLS000043701] displayed a 50% inhibitory concentration (IC50) of 10.7 µM.

In turn, `O=C1C=Cc2ccccc2/C1=C/NC12CN3CCN(CN(C3)C1)C2` [MLS000071484] showed a half-maximal inhibitory concentration (IC50) of over 50 µM.

`Cc1c(N=c2c(=O)c3ccccc3c2=O)c(=O)n(-c2ccccc2)n1C` [MLS000105950] showed a 50% inhibitory concentration (IC50) of 43.8 µM.

Turning to `CCOc1ccc2noc3c2c1C(=O)c1ccccc1-3` [MLS000106837], the half-maximal inhibitory concentration (IC50) is over 50 µM.

`COc1ccc2noc3c2c1C(=O)c1ccccc1-3` [MLS000106874] gave an IC50 of over 50 µM.

`c1ccc(CSc2nnc(-c3ccco3)c(-c3ccco3)n2)cc1` [MLS-0029114.0001] displayed a half-inhibitory concentration (IC50) of over 50 µM.

`Cc1ccc2c(c1)C1C=CCC1C(C(=O)O)N2` (stereo not drawn) [MLS-0067149.0001] gave an IC50 of over 50 µM.

As for `O=C(NC1(O)C(=O)c2ccccc2C1=O)c1ccccc1` [N-(2-hydroxy-1,3-dioxo-2-indenyl)benzamide], the IC50 is over 50 µM.

For the molecule `COc1cccc2c1NC(C(=O)O)C1CC=CC21` (stereo not drawn) [SMR000009698], the IC50 was over 50 µM.

`O=C(OC1CCCCC1)c1ccc2c(c1)C1C=CCC1C(C(=O)O)N2` (stereo not drawn) [SMR000019385] registered a concentration for half-maximal inhibition (IC50) of 4.61 µM.

Regarding `N#Cc1c(N2CCCC2)nc(N)c2c(N)nc(N3CCCC3)cc12` [SMR000061605], half-maximal inhibition (IC50) was put at 14.6 µM.

`Nc1cccc2cnccc12` [isoquinolin-5-amine]: the half-maximal inhibitory concentration (IC50) is over 50 µM.
